# Several values for one entry are separate records, joined by “and”; a condition that tells them apart may be missing. Equal values may be shown once. Marks after values point to notes of the source that are not given here.
# Experiment: Strength and degradation profile of tigecycline 20 mg/mL bulk solutions by reversed phase HPLC (effect of temperature, time, pH, dissolved oxygen; Runs A to O)
# Type: physicochemical
# Settings: 20 mg/mL
# Experimental: The contents of the sample vials are dissolved in diluent. The sample solution is diluted, if necessary, and chromatographed on a reversed phase column using gradient elution. Impurities are determined by comparing the impurity peak areas in the sample preparation chromatogram to the average area of tigecycline peaks in the standard preparation chromatograms obtained concomitantly.
# Chromatographic Column—Length about 15 cm, inside diameter about 4.6 mm, packed with Inertsil ODS2, 5 μm size particles or equivalent.
# Detector—Ultraviolet spectrophotometric detector capable of operating at 248 nm with a sensitivity of about 0.5 absorbance units full scale.
# The results of additional studies to investigate the effect of processing parameters such as temperature, time, and dissolved oxygen content on the purity profile of tigecycline solutions using the following materials, methods and procedures are presented in Tables A to O.
# The experiments were run in plastic glove bags under normal laboratory light conditions. Plastic glove boxes will be used to control the headspace of the beakers. The batch size was 200 mL. • 1. Prepare the glove bag with a mixture of nitrogen and air to achieve an oxygen level in the solution as per the design. • 2. Place the jacketed beaker on the magnetic stirrer. Connect it to the cooler. Set the cooler to the desired set point. • 3. Add 200 mL of SWFI in to the beaker. Allow equilibrating. Measure the temperature and oxygen content. When it reaches the desired condition, add accurately weighed API and mix until dissolved. If necessary use spatula to aid dissolution. For pH adjustments, use 4 mL of either 0.1N NaOH or 0.1N HCl and 196 mL of WFI for manufacture. • 4. After complete dissolution, Transfer about 5.5 mL of Solution in vials and stopper them. These vials will be stoppered at the appropriate headspace conditions. Place the vials in appropriate temperature conditions. • 5. Sample the vials at 1, 4, 8, 10, 12 and 24 hours. Send the samples for analysis. Freeze the 10, 12 and 24 samples at −20° C. for analysis the following day. • 6. Measure pH and record color of the solution at each time point. Results
# The 1-hour samples were taken directly from the beakers. Samples for later time points were collected in stoppered vials processed in the atmosphere of the bag in order to simulate the headspace conditions then placed in water baths or refrigerator to maintain there respective temperature conditions. This was done to maintain safety in the lab. Disposable plastic glove bags require constant flow of a mixture of nitrogen and air to maintain headspace oxygen level that will result in the desired dissolved oxygen (DO) content in the sample. The pH of samples was measured at each sample points.
# Strength and degradation profile was analyzed by HPLC as described above. […] Degradation was slightly higher at higher temperature condition.
# [1] = Run #D, 8° C., pH 7.7, Oxygen 2.0 mg/L, hours 1,4,8,10,12,24 at r6-r11, after 4 hours
# [2] = Run #D, 8° C., pH 7.7, Oxygen 2.0 mg/L, hours 1,4,8,10,12,24 at r6-r11, after 8 hours
# [3] = Run #D, 8° C., pH 7.7, Oxygen 2.0 mg/L, hours 1,4,8,10,12,24 at r6-r11, after 10 hours
# [4] = Run #D, 8° C., pH 7.7, Oxygen 2.0 mg/L, hours 1,4,8,10,12,24 at r6-r11, after 12 hours
# [5] = Run #D, 8° C., pH 7.7, Oxygen 2.0 mg/L, hours 1,4,8,10,12,24 at r6-r11, after 24 hours
# [6] = Run #D, 8° C., pH 7.7, Oxygen 2.0 mg/L, hours 1,4,8,10,12,24 at r17-r22, after 1 hours
# [7] = Run #D, 8° C., pH 7.7, Oxygen 2.0 mg/L, hours 1,4,8,10,12,24 at r17-r22, after 4 hours
# [8] = Run #D, 8° C., pH 7.7, Oxygen 2.0 mg/L, hours 1,4,8,10,12,24 at r17-r22, after 8 hours
# [9] = Run #D, 8° C., pH 7.7, Oxygen 2.0 mg/L, hours 1,4,8,10,12,24 at r17-r22, after 10 hours
# [10] = Run #D, 8° C., pH 7.7, Oxygen 2.0 mg/L, hours 1,4,8,10,12,24 at r17-r22, after 12 hours
# [11] = Run #D, 8° C., pH 7.7, Oxygen 2.0 mg/L, hours 1,4,8,10,12,24 at r17-r22, after 24 hours
# [12] = Run #E, 5° C., Oxygen = 2.0 mg/mL, hours 1,4,8,12,24 at r6-r10
# [13] = Run #E, 5° C., Oxygen = 2.0 mg/mL, hours 1,4,8,12,24 at r16-r20, 1 hours
# [14] = Run #E, 5° C., Oxygen = 2.0 mg/mL, hours 1,4,8,12,24 at r16-r20, 4 hours
# [15] = Run #E, 5° C., Oxygen = 2.0 mg/mL, hours 1,4,8,12,24 at r16-r20, 8 hours
# [16] = Run #E, 5° C., Oxygen = 2.0 mg/mL, hours 1,4,8,12,24 at r16-r20, 12 hours
# [17] = Run #E, 5° C., Oxygen = 2.0 mg/mL, hours 1,4,8,12,24 at r16-r20, 24 hours
# [18] = Run #F, 2° C., hours 1,4,8,12,24 at r5-r9, 1 h after preparation
# [19] = Run #F, 2° C., hours 1,4,8,12,24 at r5-r9, 4 h after preparation
compound,measurement,setting,value
CN(C)c1cc(NC(=O)CNC(C)(C)C)c(O)c2c1C[C@H]1C[C@H]3[C@H](N(C)C)C(O)=C(C(N)=O)C(=O)[C@@]3(O)C(O)=C1C2=O [Tigecycline],Strength,"Run #D, 8° C., pH 7.7, Oxygen 2.0 mg/L, hours 1,4,8,10,12,24 at r6-r11, after 1 hours",19.168 mg/mL
same,RRT 0.55 MW = 583,[1],0.16%
same,RRT 0.74 Epimer,[1],0.18%
same,Strength,[1],18.918 mg/mL
same,RRT 0.55 MW = 583,[2],0.23%
same,Strength,[2],18.915 mg/mL
same,RRT 0.55 MW = 583,[3],0.27%
same,RRT 0.74 Epimer,[3],0.25%
same,Strength,[3],19.292 mg/mL
same,RRT 0.55 MW = 583,[4],0.29%
same,RRT 0.74 Epimer,[4],0.24%
same,Strength,[4],18.728 mg/mL
same,RRT 0.55 MW = 583,[5],0.36%
same,RRT 0.74 Epimer,[5],0.27%
same,Strength,[5],18.050 mg/mL
same,RRT 1.45,[6],0.07%
same,RRT 1.67 MW = 556,[6],0.10%
same,RRT 1.85 MW = 597,[6],0.08%
same,Total,[6],0.65%
same,RRT 1.45,[7],0.19%
same,RRT 1.67 MW = 556,[7],0.21%
same,Total,[7],1.09%
same,RRT 1.45,[8],0.06%
same,RRT 1.67 MW = 556,[8],0.37%
same,RRT 1.85 MW = 597,[8],0.14%
same,Total,[8],1.57%
same,RRT 1.67 MW = 556,[9],0.24%
same,Total,[9],2.27%
same,RRT 1.45,[10],0.10%
same,RRT 1.67 MW = 556,[10],0.28%
same,RRT 1.85 MW = 597,[10],0.09%
same,Total,[10],2.47%
same,RRT 1.67 MW = 556,[11],0.51%
same,RRT 1.85 MW = 597,[11],0.10%
same,Total,[11],4.32%
same,RRT 0.55 MW = 583,[12],0.43% and 0.07% and 0.17% and 0.22% and 0.33%
same,Strength,[12],17.950 mg/mL and 19.261 mg/mL and 19.215 mg/mL and 18.970 mg/mL and 18.475 mg/mL
same,RRT 0.58,[13],0.08%
same,RRT 0.74 Epimer,[13],0.16%
same,RRT 0.76,[13],0.05%
same,RRT 1.45,[13],0.08%
same,RRT 1.85 MW = 597,[13],0.08%
same,Total,[13],0.67%
same,RRT 0.58,[14],0.07%
same,RRT 0.74 Epimer,[14],0.17%
same,RRT 1.85 MW = 597,[14],0.07%
same,Total,[14],0.96%
same,RRT 0.74 Epimer,[15],0.19%
same,RRT 0.76,[15],0.11%
same,RRT 1.45,[15],0.10%
same,RRT 1.85 MW = 597,[15],0.09%
same,Total,[15],1.58%
same,RRT 0.74 Epimer,[16],0.24%
same,RRT 0.76,[16],0.12%
same,RRT 1.85 MW = 597,[16],0.11%
same,Total,[16],3.15%
same,RRT 0.58,[17],0.05%
same,RRT 0.74 Epimer,[17],0.28%
same,RRT 0.76,[17],0.13%
same,RRT 1.45,[17],0.07%
same,RRT 1.85 MW = 597,[17],0.12%
same,Total,[17],4.23%
same,RRT 1.67 MW = 556,"Run #E, 5° C., Oxygen = 2.0 mg/mL, hours 1,4,8,12,24 at r16-r20, at 24 h Mino is co-eluting, 1 hours",0.08%
same,RRT 1.67 MW = 556,"Run #E, 5° C., Oxygen = 2.0 mg/mL, hours 1,4,8,12,24 at r16-r20, at 24 h Mino is co-eluting, 4 hours",0.16%
same,RRT 1.67 MW = 556,"Run #E, 5° C., Oxygen = 2.0 mg/mL, hours 1,4,8,12,24 at r16-r20, at 24 h Mino is co-eluting, 8 hours",0.26%
same,RRT 1.67 MW = 556,"Run #E, 5° C., Oxygen = 2.0 mg/mL, hours 1,4,8,12,24 at r16-r20, at 24 h Mino is co-eluting, 12 hours",0.39%
same,RRT 1.67 MW = 556,"Run #E, 5° C., Oxygen = 2.0 mg/mL, hours 1,4,8,12,24 at r16-r20, at 24 h Mino is co-eluting, 24 hours",0.44^a %
same,Strength,"Run #F, 2° C., Oxygen = 1.0 mg/mL, hours 1,4,8,12,24 at r5-r9, 1 h after preparation",18.733 mg/mL
same,Strength,"Run #F, 2° C., Oxygen = 1.0 mg/mL, hours 1,4,8,12,24 at r5-r9, 4 h after preparation",18.700 mg/mL
same,Strength,"Run #F, 2° C., Oxygen = 1.0 mg/mL, hours 1,4,8,12,24 at r5-r9, 8 h after preparation",18.729 mg/mL
same,Strength,"Run #F, 2° C., Oxygen = 1.0 mg/mL, hours 1,4,8,12,24 at r5-r9, 12 h after preparation",18.543 mg/mL
same,Strength,"Run #F, 2° C., Oxygen = 1.0 mg/mL, hours 1,4,8,12,24 at r5-r9, 24 h after preparation",18.818 mg/mL
same,RRT 0.58,[18],0.08%
same,RRT 0.74 Epimer,[18],0.15%
same,RRT 1.45,[18],0.07%
same,RRT 1.64 Mino,[18],0.10%
same,RRT 1.85 MW = 597,[18],0.07%
same,Total,[18],0.47%
same,RRT 0.58,[19],0.07%
same,RRT 0.74 Epimer,[19],0.16%
same,RRT 1.64 Mino,[19],0.09%
same,RRT 1.85 MW = 597,[19],0.09%
same,Total,[19],0.71%
same,RRT 0.74 Epimer,"Run #F, 2° C., hours 1,4,8,12,24 at r5-r9, 8 h after preparation",0.17%

# From patent US20070026080A1, “Manufacturing process for tigecycline” (Wyeth, priority 2005, published 2007)
